According to EP4678638A1, “NEW E3 UBIQUITIN LIGASE LIGAND, PROTEIN DEGRADATION AGENT AND USE THEREOF” (priority 2023, dated 2024):

What was measured:
[1] = molecular target: T1, CDK6 (Homo sapiens, UniProt Q00534); test: Western blot degradation of CDK6 (MDA-MB-231 Cell); assay type: cell-based; conditions: Table D3
T1 construct: evaluate the effects of the compounds of the present disclosure on the expression of target proteins in cells; endogenous in cells; host or cells: MDA-MB-231
Procedure: (§1) Conventional Western blot assay was performed to evaluate the effects of the compounds of the present disclosure on the expression of target proteins in cells.
(§2) (1) Cell Seeding and Protein Harvesting: The selected cells were processed according to the cell seeding procedure and protein harvesting procedure in Table III-2. Table III-2 Cell Seeding and Protein Harvesting Procedures
(§3) (2) To the collected supernatant, 5X SDS sample loading buffer was added, followed by denaturation at 95°C for 5 minutes. The denatured samples were then separated by SDS-PAGE electrophoresis on a polyacrylamide gel. Proteins were transferred to a nitrocellulose membrane (0.45 µm NC membrane), blocked with blocking buffer at room temperature for 1 hour, and subjected to antibody incubation and development procedures according to the antibody manufacturer's instructions (Cell Signaling Technology).
(§4) Half-Maximal Degradation Concentration value (the drug concentration required for degrading proteins by 50%, abbreviated as DC50) reads method: comparing the grayscale values of Western blot bands from drug-treated samples with those from blank DMSO-treated controls, and identifying the drug concentration range at which the grayscale value is half that of the DMSO-treated control bands.
(§5) DC50 values can be calculated using ImageJ software to measure grayscale values of Western blot bands from drug-treated samples. The concentration-response curve is fitted to estimate the drug concentration corresponding to half the grayscale value.
(§6) Target protein remaining (%) refers to the percentage of target protein remaining in hPBMC cells after treatment with protein degrader compounds.
(§7) Calculation method for target protein remaining (%): Use ImageJ software to measure grayscale values of Western blot bands from drug (protein degrader)-treated samples. The grayscale value of drug-treated bands is divided by that of internal control protein bands, and the resulting quotient is normalized to obtain the relative percentage of remaining target protein after protein degrader treatment.
(§8) Target protein degradation rate (%) = 100% - target protein remaining (%).

[2] = molecular target: T2, CDK4 (Homo sapiens, UniProt P11802); test: Western blot degradation of CDK4 (MDA-MB-231 Cell); assay type: cell-based; conditions: Table D3
T2 construct: evaluate the effects of the compounds of the present disclosure on the expression of target proteins in cells; endogenous in cells; host or cells: MDA-MB-231
Procedure: as §1, §2, §3, §4, §5, §6, §7, §8

T1 sequence (Q00534 whole entry): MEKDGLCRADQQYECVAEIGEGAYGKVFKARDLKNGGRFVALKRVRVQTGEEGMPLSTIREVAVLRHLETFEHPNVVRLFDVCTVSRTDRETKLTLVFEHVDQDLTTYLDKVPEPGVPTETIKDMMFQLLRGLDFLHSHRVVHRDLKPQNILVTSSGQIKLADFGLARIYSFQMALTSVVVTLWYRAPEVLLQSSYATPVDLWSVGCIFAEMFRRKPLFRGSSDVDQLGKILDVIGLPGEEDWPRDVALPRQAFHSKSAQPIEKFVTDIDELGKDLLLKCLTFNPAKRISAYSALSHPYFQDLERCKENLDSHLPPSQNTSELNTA
T2 sequence (P11802 whole entry): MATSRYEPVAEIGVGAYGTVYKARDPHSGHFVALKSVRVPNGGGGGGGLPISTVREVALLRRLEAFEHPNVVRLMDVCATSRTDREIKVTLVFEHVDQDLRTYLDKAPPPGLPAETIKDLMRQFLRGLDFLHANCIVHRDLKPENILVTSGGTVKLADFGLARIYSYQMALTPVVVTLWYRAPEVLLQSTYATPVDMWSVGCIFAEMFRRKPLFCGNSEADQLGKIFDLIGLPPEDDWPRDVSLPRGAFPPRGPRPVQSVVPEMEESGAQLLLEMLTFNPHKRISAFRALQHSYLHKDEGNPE

Row | Structure (SMILES) | Degradation of substrate protein CDK6 (substrate protein remaining %) [1] | Degradation of substrate protein CDK4 (substrate protein remaining %) [2]
1 | CN(C)C(=O)c1cc2cnc(Nc3ccc(N4CCC(N(C)Cc5ccc(C6CCC(=O)NC6=O)cc5)CC4)cn3)nc2n1C1CCCC1 (stereo not drawn) [GT-06490, 7-cyclopentyl-2-((5-(4-((4-(2,6-dioxopiperidin-3-yl)benzyl)(methyl)amino)piperidin-1-yl)pyridin-2-yl)amino)-N,N-dimethyl-7H-pyrrolo[2,3-d]pyrimidine-6-carboxamide] | B (B is defined as substrate protein remaining % > 80%) | A (A is defined as 0% ≤ substrate protein remaining % ≤ 80%)
2 | CN(C)C(=O)c1cc2cnc(Nc3ccc(N4CCC(N(C)Cc5ccc(N6CCC(=O)NC6=O)cc5)CC4)cn3)nc2n1C1CCCC1 [GT-06491, 7-cyclopentyl-2-((5-(4-((4-(2,4-dioxotetrahydropyrimidin-1(2H)-yl)benzyl)(methyl)amino)piperidin-1-yl)pyridin-2-yl)amino)-N,N-dimethyl-7H-pyrrolo[2,3-d]pyrimidine-6-carboxamide] | A (A is defined as 0% ≤ substrate protein remaining % ≤ 80%) | B (B is defined as substrate protein remaining % > 80%)
3 | CN(C)C(=O)c1cc2cnc(Nc3ccc(N4CCC(N(C)Cc5cccc(N6CCC(=O)NC6=O)c5)CC4)cn3)nc2n1C1CCCC1 [GT-06492, 7-cyclopentyl-2-((5-(4-((3-(2,4-dioxotetrahydropyrimidin-1(2H)-yl)benzyl)(methyl)amino)piperidin-1-yl)pyridin-2-yl)amino)-N,N-dimethyl-7H-pyrrolo[2,3-d]pyrimidine-6-carboxamide] | A (A is defined as 0% ≤ substrate protein remaining % ≤ 80%) | B (B is defined as substrate protein remaining % > 80%)
4 | CN(C)C(=O)c1cc2cnc(Nc3ccc(N4CCC(N(C)Cc5ccc(N6CCC(=O)NC6=O)cn5)CC4)cn3)nc2n1C1CCCC1 [GT-06493, 7-cyclopentyl-2-((5-(4-(((5-(2,4-dioxotetrahydropyrimidin-1(2H)-yl)pyridin-2-yl)methyl)(methyl)amino)piperidin-1-yl)pyridin-2-yl)amino)-N,N-dimethyl-7H-pyrrolo[2,3-d]pyrimidine-6-carboxamide] | B (B is defined as substrate protein remaining % > 80%) | A (A is defined as 0% ≤ substrate protein remaining % ≤ 80%)
5 | CN(C)C(=O)c1cc2cnc(Nc3ccc(N4CCC(N(C)Cc5cccc(NC6CCC(=O)NC6=O)c5)CC4)cn3)nc2n1C1CCCC1 (stereo not drawn) [GT-06495, 7-cyclopentyl-2-((5-(4-((3-((2,6-dioxopiperidin-3-yl)amino)benzyl)(methyl)amino)piperidin-1-yl)pyridin-2-yl)amino)-N,N-dimethyl-7H-pyrrolo[2,3-d]pyrimidine-6-carboxamide] | A (A is defined as 0% ≤ substrate protein remaining % ≤ 80%) | A (A is defined as 0% ≤ substrate protein remaining % ≤ 80%)
6 | CC(=O)c1c(C)c2cnc(Nc3ccc(N4CCN(Cc5ccc(N6CCC(=O)NC6=O)cc5)CC4)cn3)nc2n(C2CCCC2)c1=O [GT-06576, 1-(4-((4-(6-((6-acetyl-8-cyclopentyl-5-methyl-7-oxo-7,8-dihydropyrido[2,3-d]pyrimidin-2-yl)amino)pyridin-3-yl)piperazin-1-yl)methyl)phenyl)dihydropyr imidine-2,4(1H,3H)-dione] | A (A is defined as 0% ≤ substrate protein remaining % ≤ 80%) | A (A is defined as 0% ≤ substrate protein remaining % ≤ 80%)
